Assay results taken from patent US6476012B2, “Estradiol-16α-carboxylic acid esters as locally active estrogens” (Yale University, priority 2001, dated 2002).
Where a name gives a salt, the structure may show the parent alone.

How the values were obtained:
human ERβ and ERα = assay: Competitive binding to human ERβ and ERα expressed in Escherichia coli lysates (ratio of RBAs); details: RBAs (E2 = 100) in E. coli lysates expressing human ERβ and ERα separately
[1] = system: alkaline phosphatase (AlkP) induction in Ishikawa cells; assay: Estrogenic potency in Ishikawa cells: induction of AlkP; format: cell-based, human; details: for RSA (estrogenic potency compared to E2): Ishikawa AlkP; for Ishikawa Cell AlkP RSA (relative stimulatory activity): induction of AlkP, E2 = 100, ± S.D.
Procedure: Estrogenic Potency in Ishikawa Cells. The estrogenic potency of the E2-analogs was determined in a estrogen bioassay, the induction of AlkP in human endometrial adenocarcinoma cells (Ishikawa) grown in 96-well microtiter plates as we have previously described.^28 In short, the cells are grown in phenol red free medium with estrogen depleted (charcoal stripped) bovine serum in the presence or absence of varying amounts of the steroids. […] After 3 days, the cells are washed, frozen and thawed, and then incubated with 5 mM p-nitrophenyl phosphate, a chromogenic substrate for the AlkP enzyme, at pH 9.8. To ensure linear enzymatic analysis, the plates are monitored kinetically for the for the production of p-nitrophenol at 405 nm. The relative stimulatory activity is determined by analysis of the curve fitting program Prism. Each compound was analyzed in at least 3 separate experiments performed in duplicate.

[2] = system: esterase(s) in rat hepatic microsomes; assay: Esterase assay with rat hepatic microsomes; format: in vitro ADME; details: for Esterase RHA (relative hydrolytic activity): E16-1,2 = 100
Procedure: Esterase. Esterase activity was measured in rat hepatic microsomes essentially using the conditions described.^39 Liver obtained from Sprague-Dawley rats was washed with phosphate buffered saline and homogenized in 3 volumes of cold 0.25 M sucrose and centrifuged at 700 g for 10 min and then at 10,000 g for 20 min. The resulting supernatant was centrifuged at 105,000 g for 60 min. The pellet was suspended in 0.1 M phosphate buffer pH 7.4 and washed by centrifugation at 105,000 g for 60 min. The washed pellet was suspended in 0.1 M Tris-HCl pH 8.0 at a concentration of ˜13 mg protein/ml and frozen at −80° C. For assay, the pellets were thawed and diluted with the same buffer. The incubation mixture consisted of the microsomal enzyme preparation, 0.28 mg protein/ml, E2-16α-alkyl esters, 50 μM, added in 10 μL of ethanol, all in a final volume of 1 mL of Tris buffer pH 8.0. Since the rates of reaction are widely different for the various esters, the incubation times were varied accordingly to obtain linear kinetics. At several appropriate time points, 100 μL aliquots were withdrawn and the reaction was quenched with 33 μL CH3CN, followed by a 33 μL of a solution of THF containing 1 […] of the internal standard, 6-ketoestradiol. The quenched aliquot was centrifuged for several minutes on bench-top centrifuge and 80 μl of the supernatant was analyzed for the esterase-hydrolysis product (the corresponding E2-16α-carboxylic acid: E16-1,0 8; E16-2,0 23; E16-3,0 35) by reversed phase HPLC with system H-10 for E2-16-1 and E2-16-2 esters, and with system H-15 for E2-16-3 esters. The E2-16α-carboxyl products, (Rt for E16-1,0 8=7 min and for E16-2,0 23=9 min, E16-3,0 35=6.5 min) and the internal standard, 6-ketoestradiol (Rt 7.5 min in system H-10, and 5 min in system H-15) were quantified at 280 nm on the HPLC UV detector. The UV absorbance was converted to moles of product by comparison to standard curves and corrected for recovery of the internal standard, 6-ketoestradiol. The velocity of the reaction for each ester, in nmol product/min/ml/ was then normalized to the ester, E16-1,2 10 and is shown in Table 1 as relative hydrolytic activity (RHA). The enzymatic velocity for the hydrolysis of E16-1,2 10 was 0.9±0.2 (S.D.) nmol product/min/ml over the various experiments. Since all of the esters could not be tested simultaneously, in each case we compared the rate of hydrolysis of the test compound to that of E16-1,2 10 run concurrently. All compounds were tested in triplicate in 3 separate experiments.

[3] = system: ovariectomized mouse vagina (vaginal reductase activity); assay: In vivo local estrogenic assay (vaginal reductases); details: for dose producing a statistically significant (P<0.001) stimulation of vaginal reductase: intravaginal single dose in 25% propylene glycol in saline (FIG. 3a)
Procedure: FIG. 3 depicts the results of in vivo local estrogenic assay (vaginal assay).
Controls were injected with vehicle. The next morning, 2,3,5-triphenyltetrazolium chloride was instilled in the vagina and thirty minutes later the animals were killed and the vaginal reductase activity was determined spectrophotometrically Panel a: the steroids were dissolved in 10 μL of 25% propylene glycol in saline. Panel b: the steroids were dissolved in 10 μL of sesame oil. n=5. Error bars are±S.D. *P<0.001 compared to the control.
In Vivo Estrogen Bioassays: Vaginal reductases. […] In some experiments as indicated, the method was modified by dissolving and injecting the estrogens in 10 μL of sesame oil. The next morning 0.5 mg of 2,3,5-triphenyltetrazolium chloride in 20 μL of saline was instilled in the vagina. Thirty minutes the animals were killed and the vaginas removed, washed thoroughly with saline and then blotted on filter paper. Each vagina was placed in a 12×75 mm test tube and extracted for 1 hour with ethanol/tetrachloroethylene (3:1). Afterwards, the solvent was removed and the formazan product in the organic extract was quantified at 500 nm. Each compound was assayed on at least 3 separate occasions with at least 5 replicates each time.

[4] = system: immature female rats (uterine weight); assay: In vivo systemic estrogenic assay (uterotrophic assay, uterine weight); design: species or system rat
Procedure: FIG. 2 depicts of the results of an in vivo systemic estrogenic assay (uterotrophic assay) as described in the experimental section. […] On the fourth day the animals were killed, the uteri removed and weighed. The total dose is shown. Controls were injected with sesame oil. Error bars are±S.D. n=5. *P<0.05, **P<0.001 when compared to the control.
In Vivo Estrogen Bioassays: Uterine Weight. […] Control animals received sesame oil. On the fourth day, the animals were killed, the uteri were removed, dissected, blotted and weighed. Each compound was assayed in 3 separate experiments with n=5.

[5] = target: T1, ER in rat uterine cytosol (ERα) (Rattus norvegicus, UniProt P06211); assay: Competitive binding to the ER in rat uterine cytosol (RBA vs [3H]E2); details: for ER RBA (relative binding affinity): rat uterine estrogen receptor assay, E2 = 100, ± S.D.; for RBA: uterine cytosol (ERα), relative to E2
T1 construct: The uterus was removed and homogenized in ice-cold TEGDMo buffer; from tissue; host or cells: uterine cytosol of castrated female Sprague Dawley rats
T1 sequence (P06211 1-600): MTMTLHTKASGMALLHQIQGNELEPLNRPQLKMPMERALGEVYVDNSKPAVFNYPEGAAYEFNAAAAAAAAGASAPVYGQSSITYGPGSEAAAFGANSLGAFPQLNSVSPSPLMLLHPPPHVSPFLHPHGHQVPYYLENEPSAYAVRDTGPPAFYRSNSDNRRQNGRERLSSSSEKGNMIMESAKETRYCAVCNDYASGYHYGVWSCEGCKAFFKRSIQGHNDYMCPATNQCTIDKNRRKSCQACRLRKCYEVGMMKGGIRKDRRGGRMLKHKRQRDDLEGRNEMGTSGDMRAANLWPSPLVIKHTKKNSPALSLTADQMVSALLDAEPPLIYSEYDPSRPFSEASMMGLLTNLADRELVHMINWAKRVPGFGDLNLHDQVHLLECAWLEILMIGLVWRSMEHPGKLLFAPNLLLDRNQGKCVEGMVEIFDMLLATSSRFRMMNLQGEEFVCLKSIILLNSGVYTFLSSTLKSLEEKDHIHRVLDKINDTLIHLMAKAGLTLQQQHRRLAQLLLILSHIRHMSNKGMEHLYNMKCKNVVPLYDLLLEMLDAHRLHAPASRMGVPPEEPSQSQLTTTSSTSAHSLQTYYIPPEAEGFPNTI
Procedure: Competitive Binding to the Estrogen Receptor ERα and ERβ. […] The ER in uterine cytosol is ERα the classical form of the ER.^38 Female Sprague Dawley rats were castrated and sacrificed 24 h later. The uterus was removed and homogenized in ice-cold TEGDMo buffer (10 mM Tris, 1.5 mM Na2-EDTA, 10% (v/v) glycerol, 1.0 mM dithiothreitol, 25 mM sodium molybdate, pH 7.4 at 4° C.). and centrifuged at 105,000 g for 45 min at 4° C. The supernatant (cytosol) was frozen on dry ice and stored at −80° C. until assay. […] Incubations were carried out on ice overnight and bound radioactivity was separated from free by adsorption with dextran coated charcoal and quantified by counting.^26 Relative Binding Affinity (RBA) was determined by analysis of the displacement curves by the curve-fitting program Prism (Graph-Pad Software inc., San Diego, Calif.). The results shown in Table 1. below, are from at least 3 separate experiments performed in duplicate.

[6] = Stability on incubation with heat denatured enzyme under esterase assay conditions; format: in vitro ADME; details: heat denatured (1 h at 80° C.) enzyme, 37° C.
Procedure: The various E2-16α-alkyl esters, including the reactive E16-1,2vin 15, were stable under the conditions used in the esterase assay. Each of the substrates was incubated with heat denatured (1 h at 80° C.) enzyme at 37° C. for periods that exceeded the incubation times of the enzyme assay. Only insignificant amounts of carboxyl products were formed from any of these esters during the incubations with denatured enzyme.

Esterase RHA (relative hydrolytic activity) ([2]; rat hepatic microsomes, ± S.D.)	ER RBA (relative binding affinity) [5]	RBA [5] [%]	Structure (SMILES)	ERα/ERβ (ratio of the RBAs) (human ERβ and ERα)	RSA (estrogenic potency compared to E2) [1] [%]	Ishikawa Cell AlkP RSA (relative stimulatory activity) [1]	vaginal estrogenic effect ([3]; 50 ng in sesame oil (FIG. 3b))	dose producing a statistically significant (P<0.001) stimulation of vaginal reductase [3] [ng]	uterotrophic effect ([4]; 10 μg total dose per animal)	uterotrophic effect expressed as equivalent amount of E2 ([4]; 100 μg total dose)	also measured
45 ± 10	35 ± 4	35	COC(=O)[C@@H]1C[C@H]2[C@@H]3CCc4cc(O)ccc4[C@H]3CC[C@]2(C)[C@H]1O [E16-1,1, Methyl (3,17β-dihydroxyestra-1,3,5(10)-trien-16α-yl) formate]	750	10	10 ±3	still not stimulatory	250	small stimulatory action (P<0.05)	about 4 μg	uterotrophic stimulation expressed as equivalent amount of E2 ([4]; 30 μg total dose): ~3 ng; dose producing a reproducible and statistically significant stimulation (P<0.01) ([4]; immature rat, s.c. in sesame oil, 3 days, total dose): 30 to 50 µg
20,300 ± 5,500	6 ± 2	6	C=COC(=O)[C@@H]1C[C@H]2[C@@H]3CCc4cc(O)ccc4[C@H]3CC[C@]2(C)[C@H]1O [E16-1,2vin, Vinyl (3,17β-dihydroxyestran-1,3,5(10)-trien-16α-yl) formates]	–	–	0.4 ± 0.3	–	–	–	–	stability under the conditions used in the esterase assay [6]: stable
420 ± 40	35 ± 3	35	C[C@]12CC[C@@H]3c4ccc(O)cc4CC[C@H]3[C@@H]1C[C@@H](C(=O)OCCF)[C@@H]2O [E16-1,2F1, 2′-Fluoroethyl (3,17β-dihydroxyestra-1,3,5(10)-trien-16α-yl) formate]	2,000	13	13 ± 5	produced a significant estrogenic effect	100	–	–	rate of cleavage relative to the non-fluorinated ester E16-1,2 ([2]; esterase, rat hepatic microsomes): about 4 times; vaginal estrogenic effect ([3]; 10 ng in sesame oil): consistent stimulation at 10 ng of E16-1,2F1, however, it was not statistically significant; vaginal estrogenic effect expressed as equivalent dose of E2 ([3]; 50 ng in sesame oil (FIG. 3b)): ~20 pg; uterotrophic effect ([4]; 100 μg total dose): did not produce a uterotrophic stimulation; uterotrophic effect expressed as equivalent amount of E2 ([4]; 300 μg total dose): less than 5 ng; uterotrophic effect ([4]; 300 μg total dose, other experiments (not shown)): small uterotrophic effect
100	40 ± 10	40	CCOC(=O)[C@@H]1C[C@H]2[C@@H]3CCc4cc(O)ccc4[C@H]3CC[C@]2(C)[C@H]1O [E16-1,2, Ethyl (3,17β-dihydroxyestra-1,3,5(10)-trien-16α-yl) formate]	1,300	11	11 ± 5	still not stimulatory	250	no measurable stimulation	about 4 μg	enzymatic velocity for the hydrolysis ([2]; rat hepatic microsomes 0.28 mg protein/ml, ester 50 μM, pH 8.0, ± S.D.): 0.9±0.2 nmol product/min/ml; uterotrophic effect ([4]; 30 μg total dose): small increase in uterine weight
